T1: MalQ (Escherichia coli, UniProt P15977)
T1 construct: recombinant in E. coli, His-tagged, IMAC purified; biotinylated or amine-coupled for SPR
T1 sequence (P15977 1-694): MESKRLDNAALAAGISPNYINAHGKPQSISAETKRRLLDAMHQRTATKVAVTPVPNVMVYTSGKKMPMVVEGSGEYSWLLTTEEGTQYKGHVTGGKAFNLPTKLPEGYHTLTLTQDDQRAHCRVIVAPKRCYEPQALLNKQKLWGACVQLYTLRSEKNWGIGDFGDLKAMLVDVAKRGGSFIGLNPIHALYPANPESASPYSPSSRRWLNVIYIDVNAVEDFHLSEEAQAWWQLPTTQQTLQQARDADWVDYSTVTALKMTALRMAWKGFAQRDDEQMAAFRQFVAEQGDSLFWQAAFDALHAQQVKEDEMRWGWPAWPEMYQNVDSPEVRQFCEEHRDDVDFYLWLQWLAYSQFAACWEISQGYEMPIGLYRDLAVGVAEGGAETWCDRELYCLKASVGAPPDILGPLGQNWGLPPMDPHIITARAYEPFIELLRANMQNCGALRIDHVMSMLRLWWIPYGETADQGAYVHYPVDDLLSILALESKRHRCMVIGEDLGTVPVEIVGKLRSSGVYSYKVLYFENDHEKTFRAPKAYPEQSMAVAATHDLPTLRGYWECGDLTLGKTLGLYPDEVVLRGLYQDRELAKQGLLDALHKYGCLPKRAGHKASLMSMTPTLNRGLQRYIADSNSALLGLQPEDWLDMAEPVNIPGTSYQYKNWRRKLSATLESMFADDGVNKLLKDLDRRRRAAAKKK

T2: DPE2 (Arabidopsis thaliana, UniProt Q8RXD9)
T2 construct: recombinant in E. coli Rosetta II, pET151, N-terminal His6 tag removed with TEV protease; homodimer; biotinylated for SPR
T2 sequence (Q8RXD9 1-955): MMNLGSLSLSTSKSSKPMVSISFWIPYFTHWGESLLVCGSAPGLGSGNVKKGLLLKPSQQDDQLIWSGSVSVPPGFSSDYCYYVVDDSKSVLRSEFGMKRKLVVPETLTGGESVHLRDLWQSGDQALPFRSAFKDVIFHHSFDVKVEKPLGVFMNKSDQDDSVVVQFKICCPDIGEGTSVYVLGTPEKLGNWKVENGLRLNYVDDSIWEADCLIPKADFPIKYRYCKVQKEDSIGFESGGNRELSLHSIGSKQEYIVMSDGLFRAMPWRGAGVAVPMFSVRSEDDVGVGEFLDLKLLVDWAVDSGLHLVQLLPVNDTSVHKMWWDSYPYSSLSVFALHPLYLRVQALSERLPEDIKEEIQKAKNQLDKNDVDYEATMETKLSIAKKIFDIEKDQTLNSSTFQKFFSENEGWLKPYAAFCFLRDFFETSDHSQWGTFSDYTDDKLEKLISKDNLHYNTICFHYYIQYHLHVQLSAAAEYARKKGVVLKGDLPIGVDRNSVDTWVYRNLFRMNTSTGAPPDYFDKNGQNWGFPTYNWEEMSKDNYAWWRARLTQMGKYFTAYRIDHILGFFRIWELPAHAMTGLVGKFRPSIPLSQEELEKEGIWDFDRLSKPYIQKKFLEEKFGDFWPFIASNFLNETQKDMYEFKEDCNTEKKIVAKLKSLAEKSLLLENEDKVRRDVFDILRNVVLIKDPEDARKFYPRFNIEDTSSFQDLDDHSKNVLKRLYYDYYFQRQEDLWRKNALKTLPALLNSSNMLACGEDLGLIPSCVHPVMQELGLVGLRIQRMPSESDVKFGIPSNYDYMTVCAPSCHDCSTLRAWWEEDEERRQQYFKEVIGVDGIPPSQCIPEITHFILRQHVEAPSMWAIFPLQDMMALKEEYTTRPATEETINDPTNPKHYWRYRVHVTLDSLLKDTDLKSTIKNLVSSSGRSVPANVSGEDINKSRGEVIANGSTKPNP


Key:
MalQ [1] = target: T1, MalQ; assay: SPR, steady-state affinity fit, biotinylated protein on streptavidin chip; assay type: binding; settings: 10 mM HEPES pH 7.0, 25 °C
DPE2 [2] = target: T2, DPE2; assay: as above; assay type: binding; settings: 10 mM HEPES pH 7.0, 25 °C
MalQ [3] = target: T1, MalQ; assay: SPR, steady-state affinity fit, MalQ amine-coupled to CM5 chip; assay type: binding; settings: 10 mM HEPES pH 7.0, 25 °C; read-out: dissociation constant
MalQ [4] = target: T1, MalQ; assay: coupled hexokinase / glucose-6-phosphate dehydrogenase assay, Hanes plot; assay type: biochemical; settings: maltose as donor, Glc7 as acceptor; two separate preparations; pH 7.9, 1 mM MgCl2
DPE2 [5] = target: T2, DPE2; assay: as above; assay type: biochemical; settings: maltose as donor, glycogen as acceptor; two separate preparations; pH 7.9, 1 mM MgCl2
[6] = target: the molecule itself; assay: SEC; Superdex S-200 16/60 in 25 mM HEPES (pH 7.5), 50 mM NaCl; purified DPE2 after His tag cleavage; elution compared with molecular mass markers

| Molecule | dissociation constant (MalQ [1]) | dissociation constant (DPE2 [2]) | also measured |
| --- | --- | --- | --- |
| OC[C@H]1O[C@H](O[C@H]2[C@H](O)[C@@H](O)[C@@H](O[C@H]3[C@H](O)[C@@H](O)[C@@H](O[C@H]4[C@H](O)[C@@H](O)[C@@H](O[C@H]5[C@H](O)[C@@H](O)[C@@H](O[C@H]6[C@H](O)[C@@H](O)[C@@H](O[C@H]7[C@H](O)[C@@H](O)C(O)O[C@@H]7CO)O[C@@H]6CO)O[C@@H]5CO)O[C@@H]4CO)O[C@@H]3CO)O[C@@H]2CO)[C@H](O)[C@@H](O)[C@@H]1O (stereo partly drawn) [Glc7] | progressively lower affinities for Glc5, Glc6, and Glc7 | bound malto-oligosaccharides Glc5, Glc6, and Glc7 more strongly than Glc4 | – |
| OC[C@H]1O[C@H](O[C@H]2[C@H](O)[C@@H](O)[C@@H](O[C@H]3[C@H](O)[C@@H](O)[C@@H](O[C@H]4[C@H](O)[C@@H](O)[C@@H](O[C@H]5[C@H](O)[C@@H](O)C(O)O[C@@H]5CO)O[C@@H]4CO)O[C@@H]3CO)O[C@@H]2CO)[C@H](O)[C@@H](O)[C@@H]1O (stereo partly drawn) [Glc5] | progressively lower affinities for Glc5, Glc6, and Glc7 | bound malto-oligosaccharides Glc5, Glc6, and Glc7 more strongly than Glc4 | – |
| OC[C@H]1O[C@H](O[C@H]2[C@H](O)[C@@H](O)[C@@H](O[C@H]3[C@H](O)[C@@H](O)C(O)O[C@@H]3CO)O[C@@H]2CO)[C@H](O)[C@@H](O)[C@@H]1O (stereo partly drawn) [Glc3] | – | – | Kd (MalQ [3]): 260 nM |
| OC[C@H]1O[C@H](O[C@H]2[C@H](O)[C@@H](O)C(O)O[C@@H]2CO)[C@H](O)[C@@H](O)[C@@H]1O (stereo partly drawn) [maltose] | – | – | Km (MalQ [4]): 2.1 and 1.9 mM; Km (DPE2 [5]): 2.9 and 2.3 mM |
| OC[C@H]1O[C@H](O[C@H]2[C@H](O)[C@@H](O)[C@@H](O[C@H]3[C@H](O)[C@@H](O)[C@@H](O[C@H]4[C@H](O)[C@@H](O)[C@@H](O[C@H]5[C@H](O)[C@@H](O)[C@@H](O[C@H]6[C@H](O)[C@@H](O)C(O)O[C@@H]6CO)O[C@@H]5CO)O[C@@H]4CO)O[C@@H]3CO)O[C@@H]2CO)[C@H](O)[C@@H](O)[C@@H]1O (stereo partly drawn) [Glc6] | progressively lower affinities for Glc5, Glc6, and Glc7 | bound malto-oligosaccharides Glc5, Glc6, and Glc7 more strongly than Glc4 | – |
| OC[C@H]1O[C@H](O[C@H]2[C@H](O)[C@@H](O)[C@@H](O[C@H]3[C@H](O)[C@@H](O)[C@@H](O[C@H]4[C@H](O)[C@@H](O)C(O)O[C@@H]4CO)O[C@@H]3CO)O[C@@H]2CO)[C@H](O)[C@@H](O)[C@@H]1O (stereo partly drawn) [Glc4] | – | bound malto-oligosaccharides Glc5, Glc6, and Glc7 more strongly than Glc4 | Kd (MalQ [3]): 410 nM |
| DPE2 (4-alpha-glucanotransferase, disproportionating enzyme 2) from Arabidopsis, recombinant (enzyme, Arabidopsis thaliana, UniProt Q8RXD9 1-955, looked up, DPE2, cytosolic 4-alpha-glucanotransferase of Arabidopsis thaliana, At2g40840; also called native DPE2; recombinant DPE2; source: E. coli Rosetta II, purified (nickel IMAC, TEV protease treatment, second IMAC, Superdex S-200); not shown: His6, N-terminal, cleaved) MMNLGSLSLSTSKSSKPMVSISFWIPYFTHWGESLLVCGSAPGLGSGNVKKGLLLKPSQQDDQLIWSGSVSVPPGFSSDYCYYVVDDSKSVLRSEFGMKRKLVVPETLTGGESVHLRDLWQSGDQALPFRSAFKDVIFHHSFDVKVEKPLGVFMNKSDQDDSVVVQFKICCPDIGEGTSVYVLGTPEKLGNWKVENGLRLNYVDDSIWEADCLIPKADFPIKYRYCKVQKEDSIGFESGGNRELSLHSIGSKQEYIVMSDGLFRAMPWRGAGVAVPMFSVRSEDDVGVGEFLDLKLLVDWAVDSGLHLVQLLPVNDTSVHKMWWDSYPYSSLSVFALHPLYLRVQALSERLPEDIKEEIQKAKNQLDKNDVDYEATMETKLSIAKKIFDIEKDQTLNSSTFQKFFSENEGWLKPYAAFCFLRDFFETSDHSQWGTFSDYTDDKLEKLISKDNLHYNTICFHYYIQYHLHVQLSAAAEYARKKGVVLKGDLPIGVDRNSVDTWVYRNLFRMNTSTGAPPDYFDKNGQNWGFPTYNWEEMSKDNYAWWRARLTQMGKYFTAYRIDHILGFFRIWELPAHAMTGLVGKFRPSIPLSQEELEKEGIWDFDRLSKPYIQKKFLEEKFGDFWPFIASNFLNETQKDMYEFKEDCNTEKKIVAKLKSLAEKSLLLENEDKVRRDVFDILRNVVLIKDPEDARKFYPRFNIEDTSSFQDLDDHSKNVLKRLYYDYYFQRQEDLWRKNALKTLPALLNSSNMLACGEDLGLIPSCVHPVMQELGLVGLRIQRMPSESDVKFGIPSNYDYMTVCAPSCHDCSTLRAWWEEDEERRQQYFKEVIGVDGIPPSQCIPEITHFILRQHVEAPSMWAIFPLQDMMALKEEYTTRPATEETINDPTNPKHYWRYRVHVTLDSLLKDTDLKSTIKNLVSSSGRSVPANVSGEDINKSRGEVIANGSTKPNP | – | – | stoichiometry N [6]: 2 |
